Our source for the IC50 values is publication PMC4595834, “Comparison of carbon-sulfur and carbon-amine bond in therapeutic drug: 4β-S-aromatic heterocyclic podophyllum derivatives display antitumor activity” (Scientific Reports, 2015).

Data set [1] concerns HeLa cells. The data set is described as follows: MTT cytotoxicity assay, HeLa. Format: cell-based, human. The following applies: Homo sapiens, HeLa; MTT, drug exposure 48 h, mean ± SD (n = 3); read-out: Cytotoxic activity (IC50) HeLa. The method, then:
(§1) Cytotoxicity of the podophyllum derivatives were determined by reading the absorbance at 492 nm on a multiplate reader (Thermo Fisher Scientific, Multiskan MK3). Cell cycle analysis and apoptosis analysis were analyzed by flow cytometry (Accuri C6, BD). Immunofluorescence images were recorded using laser scanning microscope (Perkin-Elmer & Olympus, UltraView VoX & Ix81). The gel for the decatenation of kDNA by Topoisomerase II study was photographed with UV illumination, Tanon 1600 (Tanon Science & Technology Co., Ltd., Shanghai). The nitrocellulose blotting membrane for western blot analysis was visualized using X-ray film processor and X-ray film, Fujifilm SUPER RX-N-C.
(§2) Cytotoxicity assay was performed on human lung adenocarcinoma epithelial cell line (A549), henrietta lacks strain of cancer cells (HeLa), human gastric carcinoma cell line (BGC 823), and normal human hepatocyte cell line (HL-7702). Cells (3500–13,000) in a 100 μL culture medium per well were seeded into 96-well microtest plates (Falcon, CA). A549 cell lines, HeLa cell lines and HL-7702 cell lines were cultured in DMEM supplemented with 10% CS, 100 mg/L penicillin G, 100 mg/L streptomycin. BGC 823 cell lines were cultured in RPMI medium 1640 supplemented with 10% CS, 100 mg/L penicillin G, and 100 mg/L streptomycin. The cells were incubated at 37 °C, in a humidified atmosphere with 5% CO2 for 48 h. For all cell lines, the microculture tetrazolium [3-(4, 5-dimethylthiazol-2-yl)-2, 5-diphenyltetrazolium bromide, MTT; Sigma, St. Louis, MO] assay was performed to measure the cytotoxic effects. Drug stock solutions (the each drug concentration was 0.5, 1, 10, 20, 50, 100, 200, and 500 μM, respectively) were prepared in DMSO and the final solvent concentration was ≤ 2% DMSO (v/v), a concentration without effect on cell replication. Initial seeding densities varied among the cell lines to ensure a final absorbance reading in control (untreated) cultures in the range 0.6–0.8 A492 units. Drug exposure was for 2 days, and the IC50 value, the drug concentration that reduced the absorbance by 50%, was interpolated from dose-response data. Each test was performed in triplicate, and absorbance readings varied no more than 5%. Data presented as means ± standard deviation (SD). Statistical analyses were performed by the analysis of variance (ANOVA). All statistical analyses were performed using Origin version 8.0 ([…], OriginLab Corp., Northampton, MA, USA). Sigmoidal dose responses and non-linear regression analyses were undertaken to identify half-maximal concentrations for each of the drugs. To evaluate differences in IC50 concentrations, analysis of variance combined with Tukey’s multiple range test was used.
(In general: Tetrazolium dyes change colour on reduction, which living cells bring about.)

Data set [2] has as its system BGC-823 cells. The experiment in a line: MTT cytotoxicity assay, BGC-823. It is filed as cell-based, human. The note with it: Homo sapiens, BGC-823; MTT, drug exposure 48 h, mean ± SD (n = 3); read-out: Cytotoxic activity (IC50) BGC-823. As for the experimental part: as §1, §2
For data set [3], the system named is A549 cells. The data set is described as follows: MTT cytotoxicity assay, A549. It is filed as cell-based, human. The following applies: MTT, drug exposure 48 h, mean ± SD (n = 3), read-out: Cytotoxic activity (IC50) A549. As for the experimental part: as §1, §2
A short description of data set [4]: MTT cytotoxicity assay, normal hepatocyte HL-7702. It is filed as cell-based. The note with it: HL-7702 cells (normal hepatocyte cell line), normal human hepatocyte cell line, drug exposure 48 h, mean ± SD (n = 3), read-out: Cytotoxic activity (IC50) HL-7702. The method, then:
as §1, §2

Read-outs that look alike come from different tables or passages of the source.

Usually IC50 stands for the concentration that gives 50% inhibition. For `COc1cc([C@@H]2c3cc4c(cc3[C@@H](Nc3nncs3)[C@H]3COC(=O)[C@H]23)OCO4)cc(OC)c1O` [2′N, 4β-NH-(1,3,4-thiodizole-2)-4-deoxy-4′-demethyl-podophyllotoxin], the IC50 in data set [1] came out at 10.3 ± 0.41 µM; in data set [2], 15.4 ± 0.63 µM; in data set [3] (Homo sapiens, A549, 48 h) it was 2.22 ± 0.31 µM. In data set [4], the IC50 at 48 h was determined as 28.7 ± 1.31 µM.
In the case of `COc1cc([C@@H]2c3cc4c(cc3[C@@H](Nc3ccccn3)[C@H]3COC(=O)[C@H]23)OCO4)cc(OC)c1O` [3′N, 4β-NH-(pyridine-2)-4-deoxy-4′-demethyl-podophyllotoxin], the IC50 in data set [1] amounted to 96.5 ± 7.64 µM; in data set [2] it was 111 ± 3.55 µM; in data set [3] (Homo sapiens, A549, 48 h), 122 ± 4.6 µM. The IC50 at 48 h in data set [4] turned out to be 122 ± 5.88 µM.
For `COc1cc([C@@H]2c3cc4c(cc3[C@@H](Nc3ncccn3)[C@H]3COC(=O)[C@H]23)OCO4)cc(OC)c1O` [4′N, 4β-NH-(pyrimidine-2)-4-deoxy-4′-demethyl-podophyllotoxin], the IC50 was determined as 44.4 ± 2.37 µM in data set [1]; 64.2 ± 4.43 µM in data set [2]; 70.4 ± 3.92 µM in data set [3] (Homo sapiens, A549, 48 h). For the same molecule, the IC50 at 48 h in data set [4] was determined as 41.8 ± 1.75 µM.
For the molecule `COc1cc([C@@H]2c3cc4c(cc3[C@@H](Sc3ncccn3)[C@H]3COC(=O)[C@H]23)OCO4)cc(OC)c1O` [4′S, 4β-S-(pyrimidine-2)-4-deoxy-4′-demethyl-podophyllotoxin], the IC50 in data set [1] is 12.92 ± 0.08 µM; in data set [2] it was 11.2 ± 0.35 µM; in data set [3] (Homo sapiens, A549, 48 h), 14 ± 1.66 µM. Also, the IC50 at 48 h in data set [4] came to 140 ± 3.82 µM.
In the case of `COc1cc([C@@H]2c3cc4c(cc3[C@@H](Nc3nc5ccccc5s3)[C@H]3COC(=O)[C@H]23)OCO4)cc(OC)c1O` [5′N, 4β-NH-(benzothiazole-2)-4-deoxy-4′-demethyl-podophyllotoxin], the IC50 is 5.65 ± 0.11 µM in data set [1]; 10.5 ± 0.45 µM in data set [2]; 14.2 ± 0.43 µM in data set [3] (Homo sapiens, A549, 48 h). Moreover, the IC50 at 48 h in data set [4] was found to be 18.6 ± 1.48 µM.
With `COc1cc([C@@H]2c3cc4c(cc3[C@@H](Sc3nc5ccccc5s3)[C@H]3COC(=O)[C@H]23)OCO4)cc(OC)c1O` [5′S, 4β-S-(benzothiazole-2)-4-deoxy-4′-demethyl-podophyllotoxin], the IC50 is 1.71 ± 0.07 µM in data set [1]; 1.87 ± 0.36 µM in data set [2]; 8.25 ± 0.83 µM in data set [3] (Homo sapiens, A549, 48 h). Also, in data set [4], the IC50 at 48 h came out at 98.5 ± 3.51 µM.
`COc1cc([C@@H]2c3cc4c(cc3[C@@H](Nc3ncnc5nc[nH]c35)[C@H]3COC(=O)[C@H]23)OCO4)cc(OC)c1O` [6′N, 4β-NH-(purine-6)-4-deoxy-4′-demethylepipodophyllotoxin]: the IC50 in data set [1] worked out at 20.5 ± 0.38 µM; in data set [2], 43.2 ± 1.36 µM; in data set [3] (Homo sapiens, A549, 48 h), 15.7 ± 1.61 µM. In addition, the IC50 at 48 h in data set [4] was 19.2 ± 1.31 µM.
Consider `COc1cc([C@@H]2c3cc4c(cc3[C@@H](Sc3ncnc5nc[nH]c35)[C@H]3COC(=O)[C@H]23)OCO4)cc(OC)c1O` [6′S, 4β-S-(purine-6)-4-deoxy-4′-demethyl-podophyllotoxin], for which the IC50 in data set [1] turned out to be 10.3 ± 0.41 µM; in data set [2] it was 45 ± 3.68 µM; in data set [3] (Homo sapiens, A549, 48 h), 7.45 ± 0.18 µM. The half-maximal inhibitory concentration (IC50) at 48 h in data set [4] was determined as 27.5 ± 2.35 µM.
With `COc1cc([C@@H]2c3cc4c(cc3[C@@H](Nc3nncs3)[C@H]3COC(=O)[C@H]23)OCO4)cc(OC)c1OC` [Compound 2N, 4β-NH-(1,3,4-thiodiazole-2)-4-deoxy-podophyllotoxin], the IC50 worked out at 6.33 ± 0.36 µM in data set [1]; 2.33 ± 0.24 µM in data set [2]; 12.5 ± 0.55 µM in data set [3] (Homo sapiens, A549, 48 h). Also, the IC50 at 48 h in data set [4] turned out to be 18.7 ± 3.19 µM.
Turning to `COc1cc([C@@H]2c3cc4c(cc3[C@@H](Sc3nncs3)[C@H]3COC(=O)[C@H]23)OCO4)cc(OC)c1OC` [Compound 2S], the half-inhibitory concentration (IC50) in data set [1] amounted to 1.25 ± 0.36 µM; in data set [2], 0.31 ± 0.02 µM; in data set [3] (Homo sapiens, A549, 48 h) it was 1.26 ± 0.1 µM. Besides, the IC50 at 48 h in data set [4] is 36.2 ± 3.81 µM.
On to `COc1cc([C@@H]2c3cc4c(cc3[C@@H](Nc3ccccn3)[C@H]3COC(=O)[C@H]23)OCO4)cc(OC)c1OC` [Compound 3N, 4β-NH-(pyridine-2)-4-deoxy-podophyllotoxin], for which the IC50 in data set [1] came out at 13.7 ± 2.13 µM; in data set [2], 14.3 ± 3.22 µM; in data set [3] (Homo sapiens, A549, 48 h), 28.2 ± 2.58 µM. Also, the IC50 at 48 h in data set [4] is 28.2 ± 2.58 µM.
For `COc1cc([C@@H]2c3cc4c(cc3[C@@H](Sc3ccccn3)[C@H]3COC(=O)[C@H]23)OCO4)cc(OC)c1OC` [Compound 3S, 4β-S-(pyridine-2)-4-deoxy-podophyllotoxin], the IC50 in data set [1] is 0.9 ± 0.03 µM; in data set [2], 1.09 ± 0.06 µM; in data set [3] (Homo sapiens, A549, 48 h), 19.1 ± 1.52 µM. In addition, the IC50 at 48 h in data set [4] came to 89.7 ± 2.45 µM.
The corresponding values for `COc1cc([C@@H]2c3cc4c(cc3[C@@H](Nc3ncccn3)[C@H]3COC(=O)[C@H]23)OCO4)cc(OC)c1OC` [Compound 4N, 4β-NH-(pyrimidine-2)-4-deoxy-podophyllotoxin] are 26.4 ± 1.52 µM, 63.6 ± 3.77 µM, 59.6 ± 3.48 µM and 47.3 ± 2.71 µM.
For the molecule `COc1cc([C@@H]2c3cc4c(cc3[C@@H](Sc3ncccn3)[C@H]3COC(=O)[C@H]23)OCO4)cc(OC)c1OC` [Compound 4S, 4β-S-(pyrimidine-2)-4-deoxy-podophyllotoxin], the IC50 is 3.64 ± 0.46 µM in data set [1]; 0.49 ± 0.01 µM in data set [2]; 2.4 ± 0.76 µM in data set [3] (Homo sapiens, A549, 48 h). In data set [4], the IC50 at 48 h came out at 51.1 ± 3.17 µM.
The corresponding values for `COc1cc([C@@H]2c3cc4c(cc3[C@@H](Nc3nc5ccccc5s3)[C@H]3COC(=O)[C@H]23)OCO4)cc(OC)c1OC` [Compound 5N] are 2.32 ± 0.28 µM, 13.2 ± 0.86 µM, 15.2 ± 0.43 µM and 5.33 ± 0.14 µM.
Turning to `COc1cc([C@@H]2c3cc4c(cc3[C@@H](Sc3nc5ccccc5s3)[C@H]3COC(=O)[C@H]23)OCO4)cc(OC)c1OC` [Compound 5S, 4β-S-(benzothiazole-2)-4-deoxy-podophyllotoxin], the IC50 in data set [1] worked out at 0.97 ± 0.12 µM; in data set [2], 1.04 ± 0.13 µM; in data set [3] (Homo sapiens, A549, 48 h), 11.1 ± 1.71 µM. Also, in data set [4], the IC50 at 48 h worked out at 31.8 ± 1.62 µM.
For the molecule `COc1cc([C@@H]2c3cc4c(cc3[C@@H](Nc3ncnc5nc[nH]c35)[C@H]3COC(=O)[C@H]23)OCO4)cc(OC)c1OC` [Compound 6N], the IC50 in data set [1] is 5.85 ± 0.36 µM; in data set [2], 12.5 ± 1.35 µM; in data set [3] (Homo sapiens, A549, 48 h), 3.72 ± 0.11 µM. For the same molecule, in data set [4], the IC50 at 48 h was found to be 13.6 ± 1.26 µM.
The corresponding values for `COc1cc([C@@H]2c3cc4c(cc3[C@@H](Sc3ncnc5nc[nH]c35)[C@H]3COC(=O)[C@H]23)OCO4)cc(OC)c1OC` [Compound 6S, 4β-S-(purine-6)-4-deoxy-podophyllotoxin] are 1.21 ± 0.13 µM, 11.3 ± 1.71 µM, 0.57 ± 0.22 µM and 20.6 ± 1.38 µM.
`COc1cc([C@@H]2c3cc4c(cc3[C@@H](O[C@@H]3O[C@@H]5CO[C@@H](C)O[C@H]5[C@H](O)[C@H]3O)[C@H]3COC(=O)[C@H]23)OCO4)cc(OC)c1O` [etoposide, reference compound]: the values for the IC50 in data set [1], in data set [2] and in data set [3] were 59.4 ± 2.45 µM, 20.5 ± 2.55 µM and 20.1 ± 1.95 µM, respectively. Besides, the IC50 at 48 h in data set [4] came to 24.6 ± 3.82 µM.
